Source: patent US6358998B1, “Body fat-reducing agent comprising dioxabicyclo[3.3.0] octane derivative as active ingredient” (Rinoru Oil Mills Co., LTD, priority 1999, dated 2002)

Assays:
perfused liver = assay: Example 2: liver perfusion experiment, triglyceride secretion; assay type: in vivo, rat; conditions: Sprague-Dawley male rats, three weeks of feeding, compared with the control group
Text: Sprague-Dawley male rats of four weeks of age were acclimatized for 5 to 11 days, and then divided into three groups (each group consisting of 5 rats), a 1.0% linoleic acid group (a control group), 0.2% sesamin group, and 0.2% sesamin+1.0% CLA group. In the experiment, CE-2 (lipid content 4.5%) manufactured by CLEA JAPAN INC. with 1.5% of a soybean oil being added thereto was used as a basic diet, and the experimental diet was freely fed to the rats. […] Three weeks after the initiation of feeding, a liver perfusion experiment was carried out.

fat tissues of rats = assay: Example 1: four-week feeding of experimental diet to rats, organ and fat tissue weights; assay type: in vivo, rat; conditions: Sprague-Dawley male rats, four weeks of feeding, compared with the control group
Text: Sprague-Dawley male rats of four weeks of age were acclimatized, and then divided into three groups (each group consisting of 8 rats), a 1.0% linoleic acid group (a control group), 0.2% sesamin group, and 0.2% sesamin+1.0% CLA group. The experimental diet shown in Table 1 and water were then freely fed to these three groups of rats. […] Four weeks after the initiation of feeding, the 8 rats constituting each group were scarified, and the organs were taken out.

c1cc2c(cc1[C@H]1OC[C@H]3[C@@H]1CO[C@@H]3c1ccc3c(c1)OCO3)OCO2 [Sesamin, sesamin]
reduced: amount of triglyceride secreted from the perfused liver (perfused liver) | weight of fat tissues around epididymis (fat tissues of rats) | weight of fat tissues around kidney (fat tissues of rats)
